Where two headings read alike, the source gives them in different places.
Experiments:
HCV replicon = HCV replicon FRET assay; format: cell-based; details: Hepatitis C virus
In short: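 HCV replicon cells, with or without Renilla luciferase reporter, incubated with titrated compounds at 37 °C; Alamar blue read for cytotoxicity. NS3 protease activity read from lysates with 20 μM EDANS/DABCYL FRET peptide (340/490 nm, kinetic), or by Dual-Glo luciferase. Background from highest protease-inhibitor wells; EC50 = 50% signal reduction.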

HCV NS5B = biological target: T1, HCV NS5B (Hepatitis C virus genotype 1b, UniProt Q9WMX2); assay: HCV NS5B RdRp enzyme assay (preincubation protocol); format: biochemical
T1 construct: The protein was expressed with an 18 amino acid C-terminal truncation to enhance the solubility; made in house; host or cells: E. coli BL21 (DE3), pET21a
In short: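 C-terminally truncated (Δ18) genotype 1b NS5B from E. coli, 14 nM, added to compound, then polyA template (0.2 nM), 3H-UTP (0.29 μM) and oligo-dT12 primer precaptured on streptavidin SPA beads. 4 h at 30 °C, pH 7.5, 2% DMSO; SPA readout; IC50 from seven concentrations by logistic fit.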

[1] = Table 1a, FRET assay, read-out: EC50*
[2] = Table 1b, FRET assay, read-out: EC50*
[3] = Table 1, FRET assay, read-out: EC50*

T1 sequence (Q9WMX2 2420-2992): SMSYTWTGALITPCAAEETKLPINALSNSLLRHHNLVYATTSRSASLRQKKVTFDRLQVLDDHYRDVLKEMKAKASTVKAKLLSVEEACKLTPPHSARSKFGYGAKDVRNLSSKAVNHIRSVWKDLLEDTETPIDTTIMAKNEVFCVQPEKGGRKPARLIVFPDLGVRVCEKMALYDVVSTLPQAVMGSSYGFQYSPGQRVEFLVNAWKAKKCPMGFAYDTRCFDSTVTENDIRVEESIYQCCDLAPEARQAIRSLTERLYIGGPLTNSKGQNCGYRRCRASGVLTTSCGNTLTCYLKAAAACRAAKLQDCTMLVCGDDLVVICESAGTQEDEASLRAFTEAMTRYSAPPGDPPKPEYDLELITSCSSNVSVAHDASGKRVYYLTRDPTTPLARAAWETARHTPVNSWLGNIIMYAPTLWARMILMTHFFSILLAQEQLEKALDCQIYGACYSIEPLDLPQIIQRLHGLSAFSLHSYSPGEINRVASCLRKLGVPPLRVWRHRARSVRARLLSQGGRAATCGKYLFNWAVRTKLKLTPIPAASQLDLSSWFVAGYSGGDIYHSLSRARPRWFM

Molecule `COC(=O)c1ccc2c(C3CCCCC3)c3n(c2c1)CC(NC(=O)N1C[C@@H](C)O[C@@H](C)C1)Cc1cc(OC)ccc1-3` (stereo partly shown) has an EC50 (HCV replicon; [1]) of 30 to 1000 nM and an IC50 (HCV NS5B; Table 1a, read-out: IC50*) of 10 to 1000 nM.

For `COc1ccc2c(c1)C=C(C(=O)N[C@@H]1C3CCC(C)([C@@H]1O)C3(C)C)Cn1c-2c(C2CCCCC2)c2ccc(C(=O)NS(=O)(=O)N(C)C)cc21` (stereo partly shown), the EC50 (HCV replicon; [2]) was 30 to 1000 nM and the IC50 (HCV NS5B; Table 1b, read-out: IC50*) was 20 to 1000 nM.

`COc1ccc2c(c1)C=C(C(=O)N(C)[C@H](C)C(=O)O)Cn1c-2c(C2CCCCC2)c2ccc(C(=O)NS(=O)(=O)N(C)C)cc21` showed an EC50 (HCV replicon; [2]) of 30 to 1000 nM and an IC50 (HCV NS5B; Table 1b, read-out: IC50*) of 20 to 1000 nM.

With `COc1ccc2c(c1)C=C(C(=O)N1CCN(C(=O)C(C)(C)O)CC1)Cn1c-2c(C2CCCCC2)c2ccc(C(=O)NS(=O)(=O)N(C)C)cc21` the EC50 (HCV replicon; [2]) was 30 to 1000 nM and the IC50 (HCV NS5B; Table 1b, read-out: IC50*) was 20 to 1000 nM.

Work on `COc1ccc2c(c1)C=C(C(=O)N1CCC(N3CCOCC3)CC1)Cn1c-2c(C2CCCCC2)c2ccc(C(=O)NS(=O)(=O)N(C)C)cc21` yielded an EC50 (HCV replicon; [3]) of 70 to 1000 nM and an IC50 (HCV NS5B; Table 1, read-out: IC50*) of 10 to 1000 nM.

Work on `COC(=O)c1ccc2c(C3CCCCC3)c3n(c2c1)CC(C(=O)N1CC2(CCN(C)CC2)C1)=Cc1ccccc1-3` yielded an EC50 (HCV replicon; [3]) of 1000 to 10000 nM and an IC50 (HCV NS5B; Table 1, read-out: IC50*) of over 1000 nM.

With `COc1ccc2c(c1)C=C(C(=O)N1CCC(C(=O)N3CCOCC3)CC1)Cn1c-2c(C2CCCCC2)c2ccc(C(=O)NS(=O)(=O)N(C)C)cc21` the EC50 (HCV replicon; [1]) was 30 to 1000 nM and the IC50 (HCV NS5B; Table 1a, read-out: IC50*) was 10 to 1000 nM.

Molecule `COc1cccc2c1C=C(C(=O)N1CCOC(CF)C1)Cn1c-2c(C2CCCCC2)c2ccc(C(=O)NS(=O)(=O)N(C)C)cc21` (stereo not shown) has an EC50 (HCV replicon; [2]) of 30 to 1000 nM and an IC50 (HCV NS5B; Table 1b, read-out: IC50*) of 20 to 1000 nM.

`CN(C)S(=O)(=O)NC(=O)c1ccc2c(C3CCCCC3)c3n(c2c1)CC(C(=O)N1CC[C@@H](F)C1)=Cc1ccccc1-3` showed an EC50 (HCV replicon; [3]) of 70 to 1000 nM and an IC50 (HCV NS5B; Table 1, read-out: IC50*) of 10 to 1000 nM.

Molecule `O=C(O)C1=Cc2ccccc2-c2c(C3CCCCC3)c3ccc(C(=O)NS(=O)(=O)N4CCOCC4)cc3n2C1` has an EC50 (HCV replicon; [3]) of over 10000 nM and an IC50 (HCV NS5B; Table 1, read-out: IC50*) of 10 to 1000 nM.

`O=C(NS(=O)(=O)N1CCOCC1)c1ccc2c(C3CCCCC3)c3n(c2c1)CC(C(=O)N1CCN(C(=O)CO)CC1)=Cc1ccccc1-3` gave an EC50 (HCV replicon; [3]) of 70 to 1000 nM and an IC50 (HCV NS5B; Table 1, read-out: IC50*) of 10 to 1000 nM.

In the case of `CC(=O)N1CCN(C(=O)C2=Cc3ccccc3-c3c(C4CCCCC4)c4ccc(C(=O)NS(=O)(=O)N5CCOCC5)cc4n3C2)CC1`, the EC50 (HCV replicon; [3]) is reported as 70 to 1000 nM and the IC50 (HCV NS5B; Table 1, read-out: IC50*) is reported as 10 to 1000 nM.

With `O=C(O)c1ccc2c(C3CCCCC3)c3n(c2c1)CC(C(=O)N1CC[C@@H](F)C1)=Cc1ccccc1-3` the EC50 (HCV replicon; [3]) was 70 to 1000 nM and the IC50 (HCV NS5B; Table 1, read-out: IC50*) was 10 to 1000 nM.

With `CN(C)S(=O)(=O)NC(=O)c1ccc2c(C3CCCCC3)c3n(c2c1)CC(C(=O)N1CCC(=O)CC1)=Cc1ccccc1-3` the EC50 (HCV replicon) was 70 to 1000 nM and the IC50 (HCV NS5B; IC50*, Table 1) was 10 to 1000 nM.

`COc1ccc2c(c1)C[C@H](NC(=O)N(C)CC(=O)N(C)C)Cn1c-2c(C2CCCCC2)c2ccc(C(=O)NS(=O)(=O)N(C)C)cc21` was tested, and the EC50 (HCV replicon; [2]) was 30 to 1000 nM and the IC50 (HCV NS5B; Table 1b, read-out: IC50*) was 20 to 1000 nM.

`COC(=O)c1ccc2c(C3CCCCC3)c3n(c2c1)CC(C(=O)N1CCC(N2CCCC(F)C2)CC1)=Cc1ccccc1-3` (stereo not shown) was tested, and the EC50 (HCV replicon; [3]) was over 370 nM and the IC50 (HCV NS5B; Table 1, read-out: IC50*) was over 1000 nM.

`COc1ccc2c(c1)C=C(C(=O)N1CC(OC)C1)Cn1c-2c(C2CCCCC2)c2ccc(C(=O)NS(=O)(=O)N(C)C)cc21` gave an EC50 (HCV replicon; [1]) of 30 to 1000 nM and an IC50 (HCV NS5B; Table 1a, read-out: IC50*) of under 20 nM.

In the case of `CON(C)S(=O)(=O)NC(=O)c1ccc2c(C3CCCCC3)c3n(c2c1)CC(C(=O)N1CCOCC1)=Cc1ccccc1-3` [drawing 100], the EC50 (HCV replicon; [3]) is reported as 70 to 1000 nM and the IC50 (HCV NS5B; Table 1, read-out: IC50*) is reported as 10 to 1000 nM.

For `COc1ccc2c(c1)C=C(C(=O)N(C)CC(=O)N1CCC1)Cn1c-2c(C2CCCCC2)c2ccc(C(=O)NS(=O)(=O)N(C)C)cc21`, the EC50 (HCV replicon; [1]) was 30 to 1000 nM and the IC50 (HCV NS5B; Table 1a, read-out: IC50*) was 10 to 1000 nM.

`CN(C)C(=O)CN(C)C(=O)C1=Cc2ccccc2-c2c(C3CCCCC3)c3ccc(C(=O)Nc4ccccn4)cc3n2C1` showed an EC50 (HCV replicon; [2]) of 1000 to 10000 nM and an IC50 (HCV NS5B; Table 1b, read-out: IC50*) of 20 to 1000 nM.

Source: patent US7473688B2, “Indolobenzazepine HCV NS5B inhibitors” (Bristol-Myers Squibb Company, priority 2005, dated 2009)
